Measurements: US20070128217A1 (priority 2003, published 2007)

Assays:
[1] = test system: antibodies in sera from SARS patients (sera 1a, 1b, 2, 6, 37, 62, London, SARS-yellow, SARS-green); assay type: binding, human; parameters: Binding of serum 6 to linear peptides of protein X1 of SARS-CoV Urbani / Binding of serum 37 to linear peptides of protein X1 of SARS-CoV Urbani / Binding of serum 6 to looped/cyclic peptide (PEPSCAN-ELISA) / Binding of serum 37 to looped/cyclic peptide (PEPSCAN-ELISA) / Binding of serum 37 to looped/cyclic peptides of protein X1 of SARS-CoV Urbani / Binding of serum 6 to linear peptides of protein X2 / Binding of serum 37 to linear peptides of protein X2 / Binding of serum 37 to looped/cyclic peptides of protein X2 of SARS-CoV Urbani / Binding of serum 6 to linear peptides of protein M of SARS-CoV Urbani / Binding of serum 37 to linear peptides of protein M of SARS-CoV Urbani / Binding of serum 6 to looped/cyclic peptides of protein M of SARS-CoV Urbani / Binding of serum 37 to looped/cyclic peptides of protein M of SARS-CoV Urbani / Binding of serum 6 to linear peptides of protein X3 of SARS-CoV Urbani / Binding of serum 37 to linear peptides of protein X3 of SARS-CoV Urbani / Binding of serum 37 to looped/cyclic peptides of protein X3 of SARS-CoV Urbani / Binding of serum 6 to linear peptides of protein X4 of SARS-CoV Urbani / Binding of serum 37 to linear peptides of protein X4 of SARS-CoV Urbani / Binding of serum 37 to looped/cyclic peptides of protein X4 of SARS-CoV Urbani / Binding of serum 6 to linear peptides of protein X5 of SARS-CoV Urbani / Binding of serum 37 to linear peptides of protein X5 of SARS-CoV Urbani / Binding of serum 37 to looped/cyclic peptides of protein X5 of SARS-CoV Urbani / Binding of serum 6 to linear peptides of protein N of SARS-CoV Urbani / Binding of serum 37 to linear peptides of protein N of SARS-CoV Urbani / Binding of serum 6 to linear peptide (PEPSCAN-ELISA) / Binding of serum 1a to looped/cyclic peptides of protein N of SARS-CoV Urbani / Binding of serum 1b to looped/cyclic peptides of protein N of SARS-CoV Urbani / Binding of serum 2 to looped/cyclic peptides of protein N of SARS-CoV Urbani / Binding of serum 6 to looped/cyclic peptides of protein N of SARS-CoV Urbani / Binding of serum 37 to looped/cyclic peptides of protein N of SARS-CoV Urbani / Binding of serum 62 to looped/cyclic peptides of protein N of SARS-CoV Urbani / Binding of serum London to looped/cyclic peptides of protein N of SARS-CoV Urbani / Binding of serum SARS-green to looped/cyclic peptides of protein N of SARS-CoV Urbani: unit not given here
[2] = test system: control sera (pooled serum of ten healthy LUMC hospital workers; commercial negative donor pooled serum from the Dutch bloodbank); assay type: binding, human; parameters: Binding of Control serum LUMC to linear peptides / Binding of Control serum Blood-bank to linear peptides / Binding of Control serum LUMC to looped peptides / Binding of Control Serum Blood-Bank to Looped peptides / Binding of Control serum LUMC to linear peptides of the protein M of SARS-CoV Urbani / Binding of Control serum Blood-bank to linear peptides of the protein M of SARS-CoV Urbani / Binding of Control serum LUMC to looped peptides of the protein M of SARS-CoV Urbani / Binding of Control Serum Blood-Bank to Looped peptides of the protein M of SARS-CoV Urbani: unit not given here
[3] = test system: recombinant human anti-SARS-CoV antibody 03-018; assay type: binding; parameters: Binding of antibody 03-018 to linear peptides of the N protein of SARS-CoV Urbani / Binding of antibody 03-018 to looped/cyclic peptides of the N protein of SARS-CoV Urbani: unit not given here
[4] = test system: rabbit serum obtained by immunizing a rabbit with the SARS-CoV strain Frankfurt 1; assay type: binding; parameters: Binding of a rabbit serum to linear peptides / Binding of a rabbit serum to looped peptides / Rabbit serum linear peptides / Rabbit serum looped peptides / Binding of a rabbit serum to linear peptides of protein N of SARS-CoV Urbani (Rabbit serum linear peptides) / Binding of a rabbit serum to looped/cyclic peptides of protein N of SARS-CoV Urbani (Rabbit serum looped peptides): unit not given here

Sequence | Binding of serum 1a to linear peptide (PEPSCAN-ELISA) [1] | Binding of serum 1a to looped/cyclic peptides of protein N of SARS-CoV Urbani [1] | Binding of serum 1b to linear peptide (PEPSCAN-ELISA) [1] | Binding of serum 1b to looped/cyclic peptides of protein N of SARS-CoV Urbani [1] | Binding of serum 2 to linear peptide (PEPSCAN-ELISA) [1] | Binding of serum 2 to looped/cyclic peptides of protein N of SARS-CoV Urbani [1] | Binding of serum 6 to linear peptide (PEPSCAN-ELISA) [1] | Binding of serum 6 to looped/cyclic peptides of protein N of SARS-CoV Urbani [1] | Binding of serum 37 to linear peptide (PEPSCAN-ELISA) [1] | Binding of serum 37 to looped/cyclic peptides of protein N of SARS-CoV Urbani [1] | Binding of serum 62 to looped/cyclic peptides of protein N of SARS-CoV Urbani [1] | Binding of serum London to looped/cyclic peptides of protein N of SARS-CoV Urbani [1] | Binding of serum SARS-green to looped/cyclic peptides of protein N of SARS-CoV Urbani [1] | Binding of serum SARS-yellow to looped/cyclic peptides of protein N of SARS-CoV Urbani [1] | Binding of Control Serum Blood-Bank to Looped peptides [2] | Binding of Control serum Blood-bank to linear peptides [2] | Binding of Control serum LUMC to linear peptides [2] | Binding of Control serum LUMC to looped peptides [2] | Binding of antibody 03-018 to linear peptides of the N protein of SARS-CoV Urbani [3] | Binding of antibody 03-018 to looped/cyclic peptides of the N protein of SARS-CoV Urbani [3] | further results
TQAFGRRGPEQTQGN | 0.2 | 0.3 | 0.1 | 0.2 | 0.2 | 0.4 | 0.2 | 0.3 | 0.6 | 0.5 | 0.5 | 0.4 | 0.3 | 0.2 | 0.7 | 0.8 | 0.7 | 0.6 | 0.1 | 0.2 | Binding of serum 62 to linear peptide (PEPSCAN-ELISA) [1]: 0.5; Binding of serum London to linear peptide (PEPSCAN-ELISA) [1]: 0.5; Binding of serum SARS-green to linear peptide (PEPSCAN-ELISA) [1]: 0.3; Binding of serum SARS-yellow to linear peptide (PEPSCAN-ELISA) [1]: 0.5; Recognition of the peptide by the rabbit serum [4]: recognized
TQGNFGDQDLIRQGT | 0.3 | 0.4 | 0.2 | 0.3 | 0.2 | 0.4 | 0.2 | 0.2 | 0.9 | 0.7 | 0.7 | 0.5 | 0.5 | 0.6 | 0.8 | 0.8 | 0.9 | 0.8 | 0.1 | 0.2 | Binding of serum 62 to linear peptide (PEPSCAN-ELISA) [1]: 0.8; Binding of serum London to linear peptide (PEPSCAN-ELISA) [1]: 0.6; Binding of serum SARS-green to linear peptide (PEPSCAN-ELISA) [1]: 0.6; Binding of serum SARS-yellow to linear peptide (PEPSCAN-ELISA) [1]: 0.6; Binding of a rabbit serum to linear peptides of protein N of SARS-CoV Urbani (Rabbit serum linear peptides) [4]: 0.2; Binding of a rabbit serum to looped/cyclic peptides of protein N of SARS-CoV Urbani (Rabbit serum looped peptides) [4]: 0.6
TQHGKEELRFPRGQG | – | 0.3 | – | 0.2 | – | 0.3 | – | 0.2 | – | 0.5 | 0.3 | 0.4 | 0.2 | 0.4 | 0.6 | 0.9 | 0.8 | 0.6 | 0.1 | 0.2 | Binding of serum 1a to linear peptides of protein N of SARS-CoV Urbani [1]: 0.3; Binding of serum 1b to linear peptides of protein N of SARS-CoV Urbani [1]: 0.2; Binding of serum 2 to linear peptides of protein N of SARS-CoV Urbani [1]: 0.3; Binding of serum 6 to linear peptides of protein N of SARS-CoV Urbani [1]: 0.2; Binding of serum 37 to linear peptides of protein N of SARS-CoV Urbani [1]: 0.7; Binding of serum 62 to linear peptides of protein N of SARS-CoV Urbani [1]: 0.8; Binding of serum London to linear peptides of protein N of SARS-CoV Urbani [1]: 0.5; Binding of serum SARS-green to linear peptides of protein N of SARS-CoV Urbani [1]: 0.4; Binding of serum SARS-yellow to linear peptides of protein N of SARS-CoV Urbani [1]: 0.6; Binding of a rabbit serum to linear peptides of protein N of SARS-CoV Urbani (Rabbit serum linear peptides) [4]: 0.1; Binding of a rabbit serum to looped/cyclic peptides of protein N of SARS-CoV Urbani (Rabbit serum looped peptides) [4]: 0.3
